Reference: PMC6353898, “A Rational Approach for Creating Peptides Mimicking Antibody Binding” (Scientific Reports, 2019)
Like-named read-outs stand apart in the source and are kept apart here. Square brackets hold non-standard residues; d marks the D form. Ends that are not written are not given here. Peptide text beside a SMILES is read from it. * marks the point of attachment. Dolaproine = CO[C@@H]([C@@H]1CCCN1)[C@@H](C)C(=O)O; Dil = CC[C@H](C)[C@H](NC)[C@@H](CC(=O)O)OC; X1 = C[C@@H](N*)[C@@H](O)c1ccccc1; NMeV = CN[C@H](C(=O)O)C(C)C

Assays:
A431 cells = experiment: In vitro cytotoxicity (SRB), A431; format: cell-based
Protocol: (§1) Cells were cultured to 80% confluency in T75 culture flasks using DMEM as growth medium, respectively. The cells were seeded onto 96 well plates and grown for 24 h to reach 50% confluency.
(§2) At the end of the incubation period, the cells were fixed using 10% trichloroacetic acid, followed by washing with distilled water and drying. The cellular proteins were stained using 50 μL of 0.4% Sulforhodamine B (SRB) in 1% acetic acid. Unbound SRB was washed with 1% acetic acid and the plates were dried overnight. The cell bound SRB was then solubilized using 200 μL of 10 mM unbuffered tris base solution. SRB absorbance was measured at 560 nm wavelength using a plate reader. The percent viabilities of cells were plotted as a function of log concentration and data was analyzed in GraphPad Prism Version 5.0 software (GraphPad Software Inc, CA, USA) using nonlinear-regression curve fit (variable slope four parameter equation).

MDA MB 468 cells = experiment: In vitro cytotoxicity (SRB), MDA MB 468; format: cell-based, human
Protocol: as §1, §2

HEK 293 cells = experiment: In vitro cytotoxicity (SRB), HEK 293; format: cell-based, human
Protocol: as §1, §2

[1] = target: bovine serum albumin (BSA) (Bos taurus, UniProt P02769); settings: pH 7.4
Protocol: Surface plasmon resonance (SPR) studies were conducted using the Dual Channel SPR Spectrometer SPR7000DC (Reichert Technologies, New York, USA) to determine the binding affinity of peptides to EGFR protein. All experiments were carried out at 25 °C. Phosphate buffer saline (PBS) with 0.01% Tween 20 (pH7.4) was filtered and thoroughly degassed before use. EGFR (20 µg/mL) recombinant human protein and bovine serum albumin (BSA 20 µg/mL) were covalently attached to the left channel of 500,000 Da carboxymethylated dextran sensor chips using 1-ethyl-3-(3-dimethylaminopropyl)-carbodiimide (EDC) and N-hydroxysuccinimide (NHS) chemistry. The chips were then blocked by passing ethanolamine for 8 minutes at a rate of 10 µL/min.
All peptides were injected as soluble analytes in PBS with 0.01% Tween 20 at different concentrations with an injection speed at 15 µL/min. […] The bound surface was regenerated by sequential injections of 10 mM glycine in PBS (pH 2.5).
The sensorgrams from SPR were globally treated using Scrubber 2 software (BioLogic Software Pty Ltd, Australia), and kinetic constants kon and koff were determined by global fitting analyses of the titration curves using the 1:1 Lagmurian interaction model considering the mass transport. The equilibrium dissociation constant (KD) was calculated from the koff/kon ratio.

[2] = target: EGFR recombinant human protein (Homo sapiens, UniProt P00533); experiment: Surface plasmon resonance, EGFR as immobilized surface; format: binding; settings: SPR, 25 °C, PBS with 0.01% Tween 20 pH 7.4
Protocol: All experiments were carried out at 25 °C.

EGFR recombinant human protein, sequence (P00533 25-645 limits assumed): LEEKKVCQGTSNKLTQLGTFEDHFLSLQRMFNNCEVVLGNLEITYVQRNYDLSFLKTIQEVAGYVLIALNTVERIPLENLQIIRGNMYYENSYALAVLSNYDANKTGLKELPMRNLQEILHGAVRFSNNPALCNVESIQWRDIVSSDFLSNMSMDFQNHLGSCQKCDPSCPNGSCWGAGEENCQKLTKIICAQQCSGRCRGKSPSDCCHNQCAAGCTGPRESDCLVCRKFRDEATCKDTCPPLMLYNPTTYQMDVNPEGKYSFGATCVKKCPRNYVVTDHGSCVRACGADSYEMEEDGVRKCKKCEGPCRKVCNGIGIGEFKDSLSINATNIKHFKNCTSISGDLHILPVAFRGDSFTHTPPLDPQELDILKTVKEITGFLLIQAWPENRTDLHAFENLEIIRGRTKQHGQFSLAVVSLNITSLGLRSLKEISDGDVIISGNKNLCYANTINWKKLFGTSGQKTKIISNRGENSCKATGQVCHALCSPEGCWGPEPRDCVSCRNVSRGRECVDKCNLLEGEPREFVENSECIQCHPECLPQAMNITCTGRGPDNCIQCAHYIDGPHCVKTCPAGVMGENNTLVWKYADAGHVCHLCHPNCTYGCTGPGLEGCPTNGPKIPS
bovine serum albumin (BSA), sequence (P02769 25-607): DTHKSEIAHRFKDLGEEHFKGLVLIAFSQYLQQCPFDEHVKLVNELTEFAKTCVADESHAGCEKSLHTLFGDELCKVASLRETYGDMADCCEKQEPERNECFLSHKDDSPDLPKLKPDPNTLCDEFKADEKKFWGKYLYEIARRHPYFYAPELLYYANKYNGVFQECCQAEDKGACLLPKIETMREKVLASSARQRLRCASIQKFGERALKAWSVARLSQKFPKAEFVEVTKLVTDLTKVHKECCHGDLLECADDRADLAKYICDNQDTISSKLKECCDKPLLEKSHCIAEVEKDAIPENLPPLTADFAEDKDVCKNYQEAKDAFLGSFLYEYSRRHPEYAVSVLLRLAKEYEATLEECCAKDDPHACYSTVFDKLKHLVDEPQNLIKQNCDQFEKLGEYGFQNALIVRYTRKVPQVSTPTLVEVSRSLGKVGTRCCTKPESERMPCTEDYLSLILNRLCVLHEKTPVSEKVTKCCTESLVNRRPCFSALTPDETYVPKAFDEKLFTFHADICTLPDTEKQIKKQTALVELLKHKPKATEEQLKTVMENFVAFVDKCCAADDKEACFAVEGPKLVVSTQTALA

## WSGENGPGFYDYEA [Pep11]
A431 cells; 72 h
  IC50: 388 nM
MDA MB 468 cells; 72 h
  IC50: 420 nM
HEK 293 cells; 72 h
  IC50: 1040 nM
[1]
  KD BSA / binding to BSA, no value: did not show binding

## CC[C@H](C)[C@@H]([C@@H](CC(=O)N1CCC[C@H]1[C@H](OC)[C@@H](C)C(=O)N[C@H](C)[C@@H](O)c1ccccc1)OC)N(C)C(=O)[C@@H](NC(=O)[C@@H](NC)C(C)C)C(C)C [MMAE, Monomethyl Auristatin E, reference compound] (H-[NMeV]V[Dil][Dolaproine]-X1)
A431 cells; SRB, 72 hours at 37 °C, 0.00001 to 10000 nM, read-out: IC50 (A431)
  IC50: 0.0246 nM
MDA MB 468 cells; SRB, 72 hours at 37 °C, 0.00001 to 10000 nM, read-out: IC50 (MDA MB 468)
  IC50: 0.0117 nM
HEK 293 cells; SRB, 72 hours at 37 °C, 0.00001 to 10000 nM, read-out: IC50 (HEK 293)
  IC50: 0.0626 nM

## SGEWAYDGYEPNFG [Pep25]
[2]
  KD EGFR / binding to EGFR, no value: did not bind
